The values that follow come from patent publication US20180012623A1, “Ionic Liquid, Lubricant, and Magnetic Recording Medium” (Dexerials Corporation, priority 2016, published 2018).

Read-outs that look alike come from different tables or passages of the source.

Series [1] can be described thus: Measurement of thermal stability (TG/DTA weight reduction temperature). In kind it is physicochemical. The following applies: for Weight reduction temperature 5% / Weight reduction temperature 10% / Weight reduction temperature 20%: TG/DTA, 30° C. to 600° C., 10° C./min, air 200 mL/min; for Weight reduction temperatures higher than those of Z-TETRAOL by: compared with Z-TETRAOL (Comparative Example 7C); for Weight reduction temperatures higher than those of Z-DOL by: compared with perfluoropolyether Z-DOL (Comparative Example 6C).

Series [2] is described as follows: Solubility test of ionic liquids in Vertrel XF and n-hexane (visual observation). On the procedure: To a predetermined amount of Vertrel XF or n-hexane, the ionic liquid was added. Ultrasonic waves were applied to the resultant mixture for 5 minutes, followed by leaving the mixture to stand for 1 day. The solubility was visually observed.
After applying ultrasonic waves to the resultant for 5 minutes, the resultant was left to stand for 1 day. Thereafter, the solubility was visually observed and evaluated based on the following evaluation criteria. […] Similarly, after applying ultrasonic waves to the resultant for 5 minutes, the resultant was left to stand for 1 day. Thereafter, the solubility was visually observed and evaluated based on the following evaluation criteria.
Note that, the solubility was visually observed, and it was judged as soluble when it was transparent. Moreover, it was judged as not soluble (insoluble) when it was opaque or insoluble components were observed.
The results are presented in Table 2. • [Evaluation Criteria]
• 0.2% by mass or greater:
Soluble with addition of 0.2 parts by mass • Less than 0.2% by mass:
Insoluble with addition of 0.2 parts by mass
<<n-Hexane>> • 0.5% by mass or greater:
Soluble with addition of 0.5 parts by mass • Less than 0.5% by mass:
Insoluble with addition of 0.5 parts by mass

For series [3] the following is noted: in acetonitrile; cited from earlier work.
[4] abbreviates: Vertrel XF [CF3(CHF)2CF2CF3], 25° C., 0.2 parts by mass added to 100 parts by mass, ultrasonic 5 minutes, left 1 day, visual.
[5] abbreviates: n-hexane, 25° C., 0.5 parts by mass added to 100 parts by mass, ultrasonic 5 minutes, left 1 day, visual.

As to “nonafluorobutanesulfonic acid-1-octadecylimidazolium [1A, reference compound]”, in series [1], the “Weight reduction temperature 5%” value was found to be 349.3 °C, the “Weight reduction temperature 10%” value was found to be 375.0 °C and the “Weight reduction temperature 20%” value is 397.5 °C.

`CCCCCCCCCCCCCCCCCCn1ccnc1CCCCCCCCCCCCCCCCC.O=S(=O)(O)C(F)(F)C(F)(F)C(F)(F)C(F)(F)F` [4A, nonafluorobutanesulfonic acid-1-octadecyl-2-heptadecyimidazole, reference compound]: in series [2] (setting [4]), the “Solubility, Fluorine-based solvent” value is “less than 0.2% by mass”. The “Solubility, n-Hexane” value in series [2] (setting [5]) was “less than 0.5% by mass”. In addition, in series [1], the “Weight reduction temperature 5%” value was found to be 338.2 °C, the “Weight reduction temperature 10%” value is 365.9 °C and the “Weight reduction temperature 20%” value was 390.1 °C.

In the case of `O=S(=O)(NS(=O)(=O)C(F)(F)C(F)(F)C(F)(F)C(F)(F)F)C(F)(F)C(F)(F)C(F)(F)C(F)(F)F` [bis(nonafluorobutanesulfonyl)imide], in series [3], the pKa is 0.0.

For `O=S1(=O)NS(=O)(=O)C(F)(F)C(F)(F)C1(F)F` [hexafluorocyclopropane-1,3-bis(sulfonyl)imide], the pKa in series [3] is given as −0.8.

For the compound `CCCCCCCCCCCCCCCCCCn1ccnc1CCCCCCCCCCC.O=S(=O)(NS(=O)(=O)C(F)(F)C(F)(F)C(F)(F)C(F)(F)F)C(F)(F)C(F)(F)C(F)(F)C(F)(F)F` [Ex. 4A, bis(nonafluorobutanesulfonyl)imide-1-octadecyl-2-undecylimidazolium], in series [1], the “Weight reduction temperature 5%” value is 329.1 °C, the “Weight reduction temperature 10%” value was determined as 362.4 °C, the “Weight reduction temperature 20%” value was 388.4 °C and the “Weight reduction temperatures higher than those of Z-TETRAOL by” value is not below 90 °C. In addition, the “Weight reduction temperatures higher than those of Z-DOL by” value in series [1] was not below 160 °C.

In the case of perfluorocyclopropane sulfoimide, the pKa in series [3] is given as −0.8.

“nonafluorobutanesulfonic acid-2-heptadecylimidazole [3A, reference compound]”: in series [1], the “Weight reduction temperature 5%” value amounted to 365.4 °C, the “Weight reduction temperature 10%” value turned out to be 390.5 °C and the “Weight reduction temperature 20%” value was 414.3 °C.

For “nonafluorobutanesulfonic acid-1-octadecyl-2-undecylimidazolium [Ex. 3A]”, in series [1], the “Weight reduction temperature 5%” value came out at 328.3 °C, the “Weight reduction temperature 10%” value came to 368.1 °C, the “Weight reduction temperature 20%” value stood at 396.7 °C and the “Weight reduction temperatures higher than those of Z-TETRAOL by” value is not below 80 °C. In addition, the “Weight reduction temperatures higher than those of Z-DOL by” value in series [1] was not below 170 °C.

With “nonafluorobutanesulfonic acid-1-dodecyl-2-undecylimidazolium [Ex. 1A]”, in series [1], the “Weight reduction temperature 5%” value amounted to 349.4 °C, the “Weight reduction temperature 10%” value stood at 374.1 °C, the “Weight reduction temperature 20%” value is 398.9 °C and the “Weight reduction temperatures higher than those of Z-TETRAOL by” value was not below 100 °C. Further, in series [1], the “Weight reduction temperatures higher than those of Z-DOL by” value was not below 170 °C.

With `CCCCCCCCCCCCn1ccnc1CCCCCCCCCCC.O=S(=O)(NS(=O)(=O)C(F)(F)C(F)(F)C(F)(F)C(F)(F)F)C(F)(F)C(F)(F)C(F)(F)C(F)(F)F` [Ex. 2A, bis(nonafluorobutanesulfonyl)imide-1-dodecyl-2-undecylimidazolium], in series [2] (setting [4]), the “Solubility, Fluorine-based solvent” value is recorded as not below 0.2% by mass. Further, the “Solubility, Fluorine-based solvent” value in series [2] (Vertrel XF [CF3(CHF)2CF2CF3], 25° C., 0.2 parts by mass added to 100 parts by mass, ultrasonic 5 minutes, left 1 day, visual, listed as Example 2A) is not below 0.2 % by mass. In addition, the “Solubility, n-Hexane” value in series [2] (setting [5]) is not below 0.5% by mass. Further, the “Solubility, n-Hexane” value in series [2] (n-hexane, 25° C., 0.5 parts by mass added to 100 parts by mass, ultrasonic 5 minutes, left 1 day, visual, listed as Example 2A) was not below 0.5 % by mass. In addition, in series [1], the “Weight reduction temperature 5%” value amounted to 337.7 °C, the “Weight reduction temperature 10%” value was 361.6 °C, the “Weight reduction temperature 20%” value came out at 383.8 °C and the “Weight reduction temperatures higher than those of Z-TETRAOL by” value is not below 100 °C. The “Weight reduction temperatures higher than those of Z-DOL by” value in series [1] was not below 160 °C.

For `CCCCCCCCCCCCCCCCCC[n+]1ccn(CCCC)c1.O=S1(=O)[N-]S(=O)(=O)C(F)(F)C(F)(F)C1(F)F` [2A, hexafluorocyclopropane-1,3-bis(sulfonyl)imide-1-butyl-3-n-octadecylimidazolium, reference compound], in series [2], the “Solubility, Fluorine-based solvent” value is given as “less than 0.2% by mass” and the “Solubility, n-Hexane” value was “less than 0.5% by mass”. Besides, in series [1], the “Weight reduction temperature 5%” value worked out at 347.2 °C, the “Weight reduction temperature 10%” value was 367.0 °C and the “Weight reduction temperature 20%” value was determined as 387.8 °C.

With `F[B-](F)(F)F.[H+]` [tetrafluoroboric acid], in series [3], the pKa was 1.8.

As for “pentadecafluorooctanoic acid octadecyl ammonium [5A, reference compound]”, in series [1], the “Weight reduction temperature 5%” value was found to be 206.9 °C, the “Weight reduction temperature 10%” value was determined as 215.8 °C and the “Weight reduction temperature 20%” value was determined as 223.4 °C. In series [1] (summary of Table 3), the “Thermal stability (in words)” value is on record as “lacking in thermal stability”.
